We go through nine compounds from PubChem BioAssay (NCI).

Some test systems named below: LOX IMVI melanoma; HOP-92 NSCLC; SNB-19 CNS; SK-MEL-28 melanoma; ACHN renal; NCI/ADR-RES ovarian; UO-31 renal; MOLT-4 leukemia; RXF 393 renal; T-47D breast.
Common to all, as to assay: inhibition of tumour cell growth, NCI panel, 48 h

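Interpolation was linear, between the two tested concentrations surrounding the appropriate level; five concentrations were tested over 48 hours in 96-well plates. Here, GI50 denotes the concentration required for 50% inhibition of growth. Definition used: TGI = concentration required for complete inhibition of growth.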 Where only a bound is given, the exact number is not on record here.

With `CC(C)(C)[OH+][O-].[O-]c1ccc(Cl)cc1C=Nc1ccc(Cl)cc1[O-].[O]=[V]`, the GI50 was 5.9 µM in the assay with LOX IMVI melanoma; 28.7 µM with HOP-92 NSCLC; 25.1 µM with SNB-19 CNS; 19.2 µM in the assay with SK-MEL-28 melanoma; 16.2 µM in the assay on ACHN renal; 29.1 µM in the assay with NCI/ADR-RES ovarian. Also, the GI50 with UO-31 renal is 13.2 µM; in the assay with MOLT-4 leukemia it was 17.5 µM; in the assay with RXF 393 renal, 17.3 µM; in the assay with T-47D breast, 11.9 µM. The TGI with LOX IMVI melanoma was 25.9 µM; in the assay with HOP-92 NSCLC, over 100 µM; with SNB-19 CNS, 66.2 µM; in the assay with SK-MEL-28 melanoma, 53.8 µM; with ACHN renal, 48 µM; in the assay on NCI/ADR-RES ovarian it was over 100 µM. For the same compound, the TGI in the assay on UO-31 renal was 70.6 µM; with MOLT-4 leukemia, over 100 µM; in the assay on RXF 393 renal, 36.6 µM; with T-47D breast it was 98.7 µM.
Turning to `CC(C)(C)[Si](C)(C)OCC1CCC(n2cnc3c(NC(=O)c4ccccc4)ncnc32)O1` (configuration not stated), the TGI is 37.1 µM with LOX IMVI melanoma; 31.6 µM with HOP-92 NSCLC; 33.9 µM in the assay on SNB-19 CNS; 27.9 µM in the assay with SK-MEL-28 melanoma; 40.3 µM in the assay with ACHN renal; 33.4 µM in the assay with NCI/ADR-RES ovarian. Moreover, the TGI came out at 3.16 µM in the assay with UO-31 renal, 39.6 µM in the assay on MOLT-4 leukemia, 37.8 µM in the assay on RXF 393 renal and 60.6 µM in the assay with T-47D breast.
Regarding `CC(C)C[C@H](NC(=O)[C@H](Cc1ccccc1)n1ccc(N2CCCCC2)cc1=O)B(O)O`, the GI50 with HOP-92 NSCLC is 1.34 µM; in the assay on SNB-19 CNS, 0.956 µM; in the assay with SK-MEL-28 melanoma it was 0.521 µM; in the assay with ACHN renal, 0.406 µM; with NCI/ADR-RES ovarian, 17.4 µM; with UO-31 renal, 0.981 µM. Further, the GI50 in the assay on MOLT-4 leukemia is 0.308 µM; with RXF 393 renal it was 0.284 µM; in the assay on T-47D breast it was 0.781 µM. The TGI was 5.61 µM with HOP-92 NSCLC; over 100 µM in the assay on SNB-19 CNS; 29.7 µM in the assay with SK-MEL-28 melanoma; over 100 µM in the assay on ACHN renal; over 100 µM with NCI/ADR-RES ovarian; 15.4 µM with UO-31 renal. Also, the TGI was over 100 µM in the assay with MOLT-4 leukemia, 0.882 µM in the assay with RXF 393 renal and 6.09 µM in the assay with T-47D breast.
Consider `O=C1/C(=C/c2cccc([N+](=O)[O-])c2)COc2ccc(O)c(O)c21`, for which the GI50 was 0.499 µM with LOX IMVI melanoma; 2.24 µM in the assay on HOP-92 NSCLC; 1.55 µM in the assay with SNB-19 CNS; 1.56 µM in the assay with SK-MEL-28 melanoma; 1.36 µM in the assay on ACHN renal; 2.43 µM with NCI/ADR-RES ovarian. In addition, the GI50 is 1.07 µM in the assay on UO-31 renal, 2.12 µM with MOLT-4 leukemia, 1.28 µM with RXF 393 renal and 1.17 µM in the assay with T-47D breast. Also, the TGI came to 1.86 µM in the assay on LOX IMVI melanoma; 8.22 µM in the assay with HOP-92 NSCLC; 2.98 µM with SNB-19 CNS; 2.98 µM in the assay with SK-MEL-28 melanoma; 2.68 µM in the assay with ACHN renal; 18 µM with NCI/ADR-RES ovarian. Also, the TGI worked out at 2.29 µM in the assay with UO-31 renal, 12.1 µM in the assay on MOLT-4 leukemia, 2.69 µM in the assay with RXF 393 renal and 3.92 µM in the assay with T-47D breast.
For the compound `Cc1ccc(NC(c2ccccc2)c2ccc3cccnc3c2O)cc1` (configuration not stated), the TGI is 16.4 µM in the assay on LOX IMVI melanoma; 16 µM in the assay with HOP-92 NSCLC; 20 µM in the assay with SNB-19 CNS; 33.3 µM with SK-MEL-28 melanoma; 15.5 µM in the assay with ACHN renal; 15.2 µM in the assay on NCI/ADR-RES ovarian. For the same compound, the TGI in the assay on UO-31 renal came to 16 µM; in the assay on MOLT-4 leukemia, 17.3 µM; with RXF 393 renal, 22.8 µM; in the assay on T-47D breast it was 36 µM.
On to `O=C(/C=C/c1ccco1)c1ccc(Nc2nc(Nc3ccc(F)cc3)nc(Nc3ccc(Cl)cc3)n2)cc1`, for which the GI50 in the assay with LOX IMVI melanoma was 16.1 µM; with HOP-92 NSCLC, 2.69 µM; in the assay on SNB-19 CNS it was 34.8 µM; in the assay on SK-MEL-28 melanoma it was over 40.2 µM; in the assay on ACHN renal, over 45.2 µM; in the assay with NCI/ADR-RES ovarian it was 26.1 µM. The GI50 with UO-31 renal is over 60.8 µM; in the assay on MOLT-4 leukemia, over 19.8 µM; with RXF 393 renal, 7.09 µM; in the assay on T-47D breast, 20.3 µM. The TGI with LOX IMVI melanoma is 39.3 µM; in the assay on HOP-92 NSCLC, over 45.4 µM; in the assay on SNB-19 CNS, over 70 µM; in the assay on SK-MEL-28 melanoma, over 61.8 µM; in the assay on ACHN renal it was over 78.9 µM; in the assay with NCI/ADR-RES ovarian, over 100 µM. The TGI in the assay with UO-31 renal is over 100 µM; in the assay on MOLT-4 leukemia it was over 49.7 µM; in the assay with RXF 393 renal, 45.9 µM; in the assay with T-47D breast, over 100 µM.
`O=C1OC(c2ccco2)=N/C1=C\c1ccc(Cl)c(Cl)c1`: the TGI in the assay with LOX IMVI melanoma, with HOP-92 NSCLC, in the assay with SNB-19 CNS, with SK-MEL-28 melanoma, in the assay on ACHN renal and in the assay on MOLT-4 leukemia was over 100 µM throughout. For the same compound, the TGI with RXF 393 renal and in the assay with T-47D breast was over 100 µM throughout.
For `C=C1C(=O)O[C@@H]2C[C@@H]1CC[C@]1(C)O[C@H]1CC[C@@]1(C)O[C@@H]1CC[C@@]2(C)O`, the GI50 was 28.7 µM in the assay with LOX IMVI melanoma; 68.6 µM with SNB-19 CNS; 17.5 µM in the assay with SK-MEL-28 melanoma; 25.1 µM in the assay on ACHN renal; 20.1 µM with NCI/ADR-RES ovarian; 13.7 µM in the assay on UO-31 renal. For the same compound, the GI50 was 13.5 µM in the assay with MOLT-4 leukemia, 55.9 µM with RXF 393 renal and 12.2 µM in the assay on T-47D breast. In addition, the TGI was 80.8 µM in the assay on LOX IMVI melanoma; over 100 µM with SNB-19 CNS; 43.1 µM in the assay on SK-MEL-28 melanoma; 75.2 µM in the assay with ACHN renal; 46.9 µM in the assay with NCI/ADR-RES ovarian; 45.1 µM in the assay with UO-31 renal. Further, the TGI with MOLT-4 leukemia was 36.7 µM; with RXF 393 renal, over 100 µM; with T-47D breast, 33.3 µM.
As for `CN(C)CCNC(=O)c1ccc(Nc2nc3ccccc3c3occc23)cc1`, the GI50 was 1.84 µM in the assay with LOX IMVI melanoma; 1.8 µM in the assay with HOP-92 NSCLC; 18.8 µM in the assay on SNB-19 CNS; 16.5 µM in the assay on SK-MEL-28 melanoma; 2.54 µM in the assay with ACHN renal; 8.92 µM in the assay on NCI/ADR-RES ovarian. The GI50 with UO-31 renal is 3.82 µM; in the assay on MOLT-4 leukemia, 2.75 µM; in the assay on T-47D breast, 16.4 µM. In addition, the TGI with LOX IMVI melanoma stood at 3.66 µM; in the assay on HOP-92 NSCLC, 9.84 µM; with SNB-19 CNS it was 39 µM; with SK-MEL-28 melanoma, 44 µM; in the assay with ACHN renal, 7.56 µM; with NCI/ADR-RES ovarian, 22.6 µM. Further, the figures for the TGI in the assay with UO-31 renal, with MOLT-4 leukemia and with T-47D breast were 16.2 µM, 5.17 µM and 39.8 µM, respectively.
